Patent US11325884B2, “Ketone inhibitors of lysine gingipain” (CORTEXYME, INC., priority 2016, dated 2022)

Assays:
P. gingivalis W83 = assay: Experimental periodontitis / P. gingivalis infection mouse model; format: in vivo, BALB/C female mice; conditions: for alveolar bone loss: week 5-10, vs vehicle; for reduction in P. gingivalis DNA copy number (RgpB gene) in brain tissue: between week 5 and 10
Text: P. gingivalis applied over several weeks directly to the gingiva of mice has been used as a model for periodontitis. Alveolar bone resorption, a hallmark of periodontitis progression, is typically observed when this model employed. More recently, use of the model has also led to the discovery of a significant amount P. gingivalis in the brain, which accumulates concomitantly with oral colonization and which subsequently leads to detrimental effects such as inflammation and loss of hippocampal neurons.
At the beginning of the study, eight week old BALB/C female mice received antibiotic in drinking water (sulfamethoxazolum 0.87 mg/mL, trimethoprimum 0.17 mg/mL) for 10 days to reduce microbiome protection from experiment infection. Experimental periodontitis was induced by ligature placement followed by multiple exposures to P. gingivalis. During the ligature procedure mice were anesthetized with an intraperitoneal injection of ketamine (200 mg/kg) and xylazine (10 mg/kg), and eyes were lubricated with ointment (Puralube Vet; Pharmaderm, Melville, N.Y.). Next, a 5-0 silk ligature (Roboz Surgical Instrument Co.) was tied around the upper maxillary left and right second molar. Sutures were applied and tied gently to prevent damage to the periodontal tissue.
Mice (n=8-10/arm) were infected for 6 weeks every other day. For infection, 100 μL of bacteria solution were applied topically to the buccal surface of the maxillae. For preparation of the bacteria, P. gingivalis W83 (ATCC, Rockville, Md.) was streaked on Tryptic Soy Broth (TSB) agar plates (5% sheep blood, supplemented with 0.5 mg/mL L-cysteine, 5 μg/mL hemin, and 0.5 μg/mL vitamin K) and grown under anaerobic conditions at 37° C. for 5-7 days. Samples were then inoculated in TSB with hemin, vitamin K and L-cysteine (TSB-HKC) until mid-log phase (OD600=0.5-0.7). Bacteria were washed in PBS and prepared at final concentration of 1×10^10 cells/mL in PBS+2% methylcellulose (CMC).
Vehicle-treated animals received PBS only. At 5 weeks, a subgroup of animals (n=16) were euthanized to gather baseline measurements before the start of treatment. After 10 weeks, mice were euthanized and the brain, serum, and maxillary tissues were harvested and frozen in liquid nitrogen.
Bone loss in the maxillae was measured ex vivo blinded using OsiriX MD software (PixmeoSARL, Bernex, Switzerland). Point of measurements were obtained using 3D Multi Planar Reconstruction (MPR) view where the maxillae were sliced straight along the superficial roots of second molar and the posterior root of first molar, with a tangent of the anterior root of the first molar. The distance between the cementoenamel junction (CEJ) and the alveolar bone crest (ABC) was measured from the CEJ to a reference line on the ABC which was placed perpendicular to the superficial root one each side of the second molar. […] (ANOVA: F (5, 24)=15.71, p<0.0001; t-test with Bonferroni correction: **p<0.005, ***p<0.001).
DNA was extracted from brain tissue using the DNeasyBLOOD & TISSUE KIT (Qiagen, Germany) according to manufacturer's protocol. Taqman qPCR was performed with Kapa Probe fast qPCR Mix (Rox Low) on a Bio-Rad CFX96 Real-Time System C1000 Touch ThermalCycler with forward and reverse primers, and a detection probe. The primers were based on a single copy of P. gingivalis arginine-specific cysteine-proteinase gene. Duplicate samples were assayed in a total volume of 10 μL, containing 100 ng of template brain genomic DNA solution, TaqMan Universal PCR Master Mix (2×) (Kapa Biosystems, USA), and the specific set of primers (final concentration 5 μM) and probe (final concentration 4 μM) (GenoMed, Poland), corresponding to 562.5 nM for the forward and reverse primers and 100 nM for the probe primer. After an initial incubation step of 2 min at 50° C. and denaturation for 95° C. for 20 sec, 40 PCR cycles (95° C. for 20 s, 60° C. for 30 sec) were performed. […]

[1] = Oral pharmacokinetics in CD-1 mice; format: in vivo; conditions: male CD-1 mice, p.o. 10 mg/kg, as compared to reference compound 73
Kgp = Kgp (Porphyromonas gingivalis (Bacteroides gingivalis), UniProt Q51817); assay: Detection of Kgp with Cy5 activity-based probe (SDS-PAGE, Cy5 visualization); format: binding; conditions: 100 nM preincubation, P. gingivalis W83
Kgp, sequence (Q51817 229-737 limits assumed): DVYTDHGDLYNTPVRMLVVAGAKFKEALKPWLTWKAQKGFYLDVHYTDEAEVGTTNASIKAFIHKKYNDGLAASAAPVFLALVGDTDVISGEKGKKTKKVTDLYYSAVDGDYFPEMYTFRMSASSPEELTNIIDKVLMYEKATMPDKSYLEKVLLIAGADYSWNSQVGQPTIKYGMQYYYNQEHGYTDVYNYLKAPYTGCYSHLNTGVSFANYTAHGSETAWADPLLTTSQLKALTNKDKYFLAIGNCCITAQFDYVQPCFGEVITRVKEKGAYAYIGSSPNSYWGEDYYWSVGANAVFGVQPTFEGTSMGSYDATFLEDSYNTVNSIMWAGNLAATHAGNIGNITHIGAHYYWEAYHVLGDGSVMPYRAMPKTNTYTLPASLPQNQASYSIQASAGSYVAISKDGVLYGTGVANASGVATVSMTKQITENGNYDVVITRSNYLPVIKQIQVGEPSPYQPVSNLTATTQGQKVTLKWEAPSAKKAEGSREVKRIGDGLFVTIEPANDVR
Protocol: It has a warhead that binds to the Kgp active site, a peptide-based core, and a Cy5 fluorophore for detection. Labeled target proteins can be visualized by biochemical separation of a sample with fractionation by 2-D gel electrophoresis and detection of fluorescent signals from Cy5 at the appropriate excitation and emission wavelength. Incubation of a fixed concentration of the probe following binding of Kgp to a test compound (e.g., a candidate Kgp inhibitor) results in binding of the activity probe to Kgp active sites not already bound by the test compound.
Preparation of P. gingivalis lysate. 10^8 bacteria were collected and centrifuged at 5000 g for 10 min at 4° C., and the supernatant was discarded. The bacterial cell pellet was lysed with 1 mL of B-Per lysis buffer (Thermo Fischer) on ice for 10 min, then centrifuged for 10 min at 14000 g, 4° C. Supernatant-containing protein lysate was collected. Biological samples were lysed with B-Per lysis buffer for 10 min at 4° C.
Cy5 direct labeling of Kgp. Biological samples, P. gingivalis lysate or purified Kgp were incubated with quenchable Cy5 probe compound 71 (1 μM) for 1 h at 37° C. with shaking. […]

P. gingivalis infection = assay: Related studies: brain abeta42 and neuroinflammation; format: in vivo
Text: By inhibiting Kgp, the compounds disclosed herein can treat P. gingivalis infection itself, as well as the detrimental effects of neurological disease and other infection-associated conditions.

NCCCC[C@H](NC(=O)C1CCCC1)C(=O)COc1c(F)ccc(F)c1F [Compound 1, (S)—N-(7-amino-2-oxo-1-(2,3,6-trifluorophenoxy)heptan-3-yl)cyclopentanecarboxamide]
alveolar bone loss (P. gingivalis W83; 3 mg/kg orally b.i.d.): trended to improvement but did not result in significant improvement | reduction in P. gingivalis DNA copy number (RgpB gene) in brain tissue (P. gingivalis W83; 3 mg/kg): 50% | alveolar bone loss (P. gingivalis W83; 10 mg/kg orally b.i.d.): improved | reduction in P. gingivalis DNA copy number (RgpB gene) in brain tissue (P. gingivalis W83; 10 mg/kg): 50% | alveolar bone loss (P. gingivalis W83; 30 mg/kg orally b.i.d.): improved | reduction in P. gingivalis DNA copy number (RgpB gene) in brain tissue (P. gingivalis W83; 30 mg/kg): 80% | GAD67 positive interneurons in the dentate gyrus (P. gingivalis W83; 10 weeks, infected untreated mice lost 25%): at the same level as the GAD67^+ cells in the mock-infected mice | oral availability [1]: improved | plasma concentrations [1]: increased | competition for Kgp active site binding with probe compound 71 (Kgp): competes for active site binding | induction of brain abeta42 (P. gingivalis infection): reduce | neuroinflammation (P. gingivalis infection): reduce
